Counter-ions that a name gives are not always drawn.
Tests used:
Assay type in all cases: physicochemical
[1] = Influence of light wavelength on related substances in solution
Method: In order to research the influence of light of the compound represented by formula (I), the amount of the related substances was measured after illumination with constant quantity of light.
A fixed amount of monohydrochloride of the compound represented by formula (I) was collected and dissolved in a mix of pH7 buffer:methanol:acetonitrile=38:31:31 to prepare a solution of 800 μg/mL. The solution was sealed in glass bottles. Thereafter, the glass bottles containing solution were irradiated with light of different wavelengths by a light irradiator (CRM-FA manufactured by Nippon Spectroscopy) and the amounts of related substances were measured.
The amount of the related substances was measured by liquid chromatography by employing the following method and conditions. The main related substance was the E-form of the optical isomer of the compound represented by formula (I). Therefore, in the analysis of the related substance amount, the E-form of the optical isomer of the compound represented by formula (I) was used as a reference for the analysis. • Detector: ultraviolet absorptiometer (measurement wavelength: 225 nm) • Column: Cadenza CW-C18 3μ, 4.6×150 mm (Imtakt) • Column temperature: constant temperature around 35° C. • Mobile Phase A: 10 mM ammonium acetate, […]

[2] = Test of solubility in water for injection; details: stirred at 37° C. for 1 hour
Method: 1. Formulation of Calibration Curve
First, 5 mg of monohydrochloride crystalline form I of the compound represented by formula (I) was precisely weighed and dissolved in a mixed solution of acetonitrile:water (1:1), and thus a 500 μg/mL solution was obtained. The obtained solution was diluted with a mixed solution of acetonitrile:water (1:1) such that the concentrations of the compound were 5 and 50 μg/mL, and a standard calibration curve was prepared. The same operation was carried out for monohydrochloride crystalline form II, monohydrochloride crystalline form V, monohydrochloride crystalline form VI, mono-p-toluenesulfonate crystalline form I, and free base crystals.
2. Formulation of Sample Solution
First, 1 mg of monohydrochloride crystalline form I of the compound represented by formula (I) was precisely weighed and transferred to a vial having a volume of 4 mL. Then, 1 mL of water (water for injection) was added, and the mixture was stirred at 37° C. for 1 hour. After being stirred, this suspension was filtered, and the peak area using a solution obtained by diluting the filtrate two-fold with a mixed solution of acetonitrile:water (1:1) as a sample. The concentration was calculated using the peak area and the calibration curve prepared above. The same operation was carried out for monohydrochloride crystalline form II, monohydrochloride crystalline form V, monohydrochloride crystalline form VI, mono-p-toluenesulfonate crystalline form I, and free base crystals.

[3] = Test of solubility in organic solvent; details: stirred at 22° C. for 4 hours, supernatant; for Concentration (% by weight) 2-Propanol: suspended in 2-propanol; for Concentration (% by weight) Acetone: suspended in acetone; for Concentration (% by weight) Ethyl acetate: suspended in ethyl acetate
Method: The monohydrochloride crystalline form I, monohydrochloride crystalline form V, and free base crystals of the compound represented by formula (I) were each suspended in 2-propanol, acetone, and ethyl acetate, and stirred at 22° C. for 4 hours, and the concentrations of supernatants were measured.

[4] = Water sorption-desorption isothermal measurement; details: ratio of increased moisture mass
Source text: Water Sorption-desorption Isothermal Measurement

[5] = Light exposure test of crystals (E isomer by HPLC); details: for E isomer (Retention time 38 minutes) Increased amount: light exposed sample minus dark control
[6] = listed as mono-p-toluenesulfonate crystalline form I
[7] = listed as Monohydrochloride form crystal VI
[8] = listed as Monohydrochloride form crystal V

| Concentration (% by weight) 2-Propanol [3] | Concentration (% by weight) Acetone [3] | Concentration (% by weight) Ethyl acetate [3] | Ratio of increased mass [4] | E isomer (Retention time 38 minutes) Light exposed sample [5] | E isomer (Retention time 38 minutes) Increased amount [5] | Solubility in water for injection [2] | E isomer (Retention time 38 minutes) Dark control [5] | Compound | other results |
| --- | --- | --- | --- | --- | --- | --- | --- | --- | --- |
|  |  |  |  |  |  |  |  | CC#C/C(=N\OC[C@H]1COCCN1)c1ccc2ncnc(Nc3ccc(OCc4cccc(F)c4)c(Cl)c3)c2c1 | Total amount of related substances, wavelength of light higher than 450 nm ([1]; 800 μg/mL solution in pH7 buffer:methanol:acetonitrile=38:31:31, light higher than 450 nm): increased little; Total amount of related substances, wavelength of light shorter than 450 nm ([1]; 800 μg/mL solution in pH7 buffer:methanol:acetonitrile=38:31:31, light shorter than 450 nm): increased as the wavelength decreased |
| 0.49 % by weight | 8.1 % by weight | 3.3 % by weight | About 1.0% | 2.59 area % | 2.59 area % |  |  | CC#C/C(=N\OC[C@H]1COCCN1)c1ccc2ncnc(Nc3ccc(OCc4cccc(F)c4)c(Cl)c3)c2c1 [Free base crystal] | Solubility in water for injection ([2]; listed as free base crystals): not dissolved in water for injection at all |
|  |  |  | About 1.4% | 32.86 area % | 32.76 area % | high solubilities | 0.10 area % | CC#C/C(=N\OC[C@H]1COCCN1)c1ccc2ncnc(Nc3ccc(OCc4cccc(F)c4)c(Cl)c3)c2c1 [Mono-p-toluenesulfonate crystalline form I] | Ratio of increased mass [4, 6]: small; E isomer (Retention time 38 minutes) Increased amount [5, 6]: about 33 area % |
|  |  |  | About 0.3% | 1.21 area % | −0.23 area % | high solubilities | 1.44 area % | CC#C/C(=N\OC[C@H]1COCCN1)c1ccc2ncnc(Nc3ccc(OCc4cccc(F)c4)c(Cl)c3)c2c1 [Monohydrochloride crystalline form II] | Ratio of increased mass ([4]; listed as monohydrochloride crystalline form H): small |
| 0.03 % by weight | 0.08 % by weight | 0.01 % by weight | About 0.8% | 4.41 area % | 3.78 area % | high solubilities | 0.63 area % | CC#C/C(=N\OC[C@H]1COCCN1)c1ccc2ncnc(Nc3ccc(OCc4cccc(F)c4)c(Cl)c3)c2c1 [Monohydrochloride crystalline form I] | Ratio of increased mass ([4]; listed as monohydrochloride crystalline form I): small |
|  |  |  | About 0.5% |  |  | high solubilities |  | CC#C/C(=N\OC[C@H]1COCCN1)c1ccc2ncnc(Nc3ccc(OCc4cccc(F)c4)c(Cl)c3)c2c1 [Monohydrochloride crystalline form VI] | Ratio of increased mass ([4]; listed as monohydrochloride crystalline form VI): small; E isomer (Retention time 38 minutes) Dark control [5, 7]: 1.16 area %; E isomer (Retention time 38 minutes) Increased amount [5, 7]: 0.64 area %; E isomer (Retention time 38 minutes) Light exposed sample [5, 7]: 1.80 area % |
| 0.01 % by weight | 0.02 % by weight | 0.00 % by weight | About 1.7% |  |  | high solubilities |  | CC#C/C(=N\OC[C@H]1COCCN1)c1ccc2ncnc(Nc3ccc(OCc4cccc(F)c4)c(Cl)c3)c2c1 [Monohydrochloride crystalline form V] | Ratio of increased mass ([4]; listed as monohydrochloride crystalline form V): small; E isomer (Retention time 38 minutes) Dark control [5, 8]: 0.13 area %; E isomer (Retention time 38 minutes) Increased amount [5, 8]: 1.06 area %; E isomer (Retention time 38 minutes) Light exposed sample [5, 8]: 1.19 area % |
|  |  |  | About 3.3% |  |  |  |  | CC#C/C(=N\OC[C@H]1COCCN1)c1ccc2ncnc(Nc3ccc(OCc4cccc(F)c4)c(Cl)c3)c2c1 [Monosulfate crystal] | Ratio of increased mass ([4]; listed as monosulfate crystals): about 3.3% |

Source: US10953016B2, “Solid dosage form containing quinazoline derivative” (Shionogi & Co., Ltd., priority 2017, dated 2021)
